Molecular target: factor Xa (Homo sapiens, UniProt P00742)
Assay: Inhibitory action towards factor Xa activity (methods of WO0216312)
Format: biochemical
Conditions: read-out: IC50 value (factor Xa inhibition)
Experimental: Determinations of the inhibitory action towards factor Xa activity were carried out in accordance with the methods described in WO0216312.

Sequence of factor Xa (P00742 235-488 limits assumed): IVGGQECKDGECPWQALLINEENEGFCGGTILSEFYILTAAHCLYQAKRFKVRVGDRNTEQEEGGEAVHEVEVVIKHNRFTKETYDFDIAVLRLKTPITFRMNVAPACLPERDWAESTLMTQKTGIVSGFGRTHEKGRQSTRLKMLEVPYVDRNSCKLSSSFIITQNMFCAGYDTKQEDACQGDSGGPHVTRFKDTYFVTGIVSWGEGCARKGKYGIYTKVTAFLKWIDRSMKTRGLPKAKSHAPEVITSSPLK
Sequence of factor Xa (P00742 41-179 partner limits assumed): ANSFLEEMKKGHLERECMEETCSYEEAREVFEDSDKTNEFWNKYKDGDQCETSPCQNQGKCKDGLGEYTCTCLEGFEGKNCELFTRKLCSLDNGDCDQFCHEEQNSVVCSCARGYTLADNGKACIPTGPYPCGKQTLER

IC50: 0.1 to 10 nM
SMILES: CN1CCN(C(=O)CNC(=O)C(Nc2cccc(C(=N)N)c2)c2ccccc2O[C@@H]2O[C@H](CO)[C@@H](O)[C@H](O)[C@H]2O)CC1 (single isomer, unassigned) [Example 1, 2-(3-Carbamimidoyl-phenylamino)-N-[2-(4-methyl-piperazin-1-yl)-2-oxo-ethyl]-2-[2-(3,4,5-trihydroxy-6-hydroxymethyl-tetrahydro-pyran-2-yloxy)-phenyl]-acetamide]

From patent US20080051388A1, “Novel Compounds That Inhibit Factor Xa Activity” (Morphochem Aktiengesellschaft Fur Kombinatorische Chemie, priority 2004, published 2008)
